{"source": "patent US10028949B2", "about": "“Parenteral formulations of lipophilic pharmaceutical agents and methods for preparing and using the same” (priority 2011, dated 2018)", "key": {"[1]": {"test_system": "human myeloid leukemia cell lines KBM-3 and KBM-7/B5, as well as the OCI-AML3", "assay": "In vitro cytotoxicity of busulfan, MTT assay", "type": "cell-based", "conditions": "compared with Bu dissolved in DMSO (positive control)", "procedure": "The cytotoxic potential of the selected preferred solvent systems with and without Bu was determined against the human myeloid leukemia cell lines KBM-3 and KBM-7/B5, as well as the OCI-AML3 (Andersson et al., 1993; Andersson et al., 1987; Andersson et al., 1995; Wang et al., 1991). Briefly, continuously growing cells were exposed to drug, and then pelleted, after which they were resuspended in complete cell culture medium at 2×10^5/mL and aliquoted (20,000/well) in 96-well plates, incubated at 37° C. for 4 days, and analyzed by the MTT assay (Mosmann, 1983). Graphical analyses including calculations of IC50 and charting of survival were done using Prism 4 (GraphPad Software, Inc., San Diego, Calif.). Cells exposed in parallel to solvent system and medium alone served as negative controls, and cells exposed to […] (final concentration 0.08% v/v) served as a positive control for a comparison of cytotoxic action with the DMA-Bu formulation."}, "[2]": {"conditions": "in vivo; cited from earlier work"}, "[3]": {"assay": "Parenteral busulfan pharmacology in mice", "procedure": "Swiss Webster mice with a body weight of 25-30 g were used for the in vivo pharmacology experiments (Harlan-Sprague-Dawley, Houston, Tex.). The animals were allowed a minimum of 3-4 days after arrival to acclimatize to the new environment and allowed free access to commercial feed and hyperchlorinated, reverse-osmosis purified water prior to and during the experimentation period. The animal-housing facilities meet the requirements of the USDA, NIH, and DHHS.\nBusulfan at a dose of 10 mg/kg BW was used as an appropriate and representative single dose that could be administered as a slow IV bolus injection over 3-4 min.\nThe Bu was formulated in the prototype VE-acetone/PEG vehicle to a stock concentration of about 10 mg/mL and then diluted with D5W to 1 mg/mL and 2 mg/mL (in repeated experiments) so the total dose of 10 mg/kg could be injected in a volume of about 250 μL and 125 μL, respectively, in a tail vein. The Bu concentrations of the final use-formulation were confirmed by HPLC prior to administration.\nNo anticonvulsant premedication was used in the animals in these experiments to avoid the possible induction of microsomal liver enzymes that could modify Bu metabolism. For the same reason the animals were unanesthetized during the drug injection, only physically restrained.\nBlood samples (0.5-1.0 mL) were procured through cardiac puncture under Isoflurane-induced general anesthesia. These samples were drawn in preheparinized tubes at selected time points prior to the drug infusion (“blank”), and from 5 min to 4 hours after drug injection for determination of Bu concentrations. The blood was centrifuged at 1,000×g for 10 min, and plasma was removed and stored at −80° C. until extracted and assayed by HPLC."}, "[4]": {"conditions": "for Solubility / Solubility (mg/mL): room temperature; for Solubility (mg/mL): listed as Bu"}, "[5]": {"assay": "Stability of Bu formulations by HPLC", "type": "physicochemical", "conditions": "for stability maintained: stock formulation diluted with D5W", "procedure": "It was initially important to describe short-term stability of the Bu/acetone/PEG mixture. This was necessary to determine if the vacuum-extraction step could be utilized without undue chemical degradation of Bu. The Bu (5 mg/mL) in acetone/PEG400 (1:2, v/v) was incubated at room temperature and quantified by HPLC after 0, 1, 2, 4, 8 and 24 hours. Second, the inventors confirmed that Bu would be stable in the VE-acetone/PEG/Bu complex. Therefore, to determine long-term stability Bu was dissolved in acetone (10 mg/mL), then mixed with PEG 400 (ratio 1:2, v/v). The acetone was extracted from the mixture under vacuum at room temperature (RT). The VE-acetone/PEG400/Bu was stored either at room temperature or 37° C. for 2 months in sealed tubes. Finally, Bu (1 mg/mL) in the final use formulation of VE-acetone/PEG 400/D5W (0:40:60, v/v/v), was incubated at room temperature and analyzed by HPLC at 0, 1, 2, 4, 8 and 15 hours to determine short-term stability. Triplicate samples were quantitatively analyzed with HPLC at all time points after appropriate dilution of the samples in the stability studies.\nBu was dissolved at a concentration of about 10 mg/mL in acetone only or in VE-acetone/PEG (prototype stock solvent vehicle) and incubated at RT (22° C.) and at 37° C. The resulting Bu concentration was measured by HPLC in samples taken immediately after solubilization, then every few hours for 8 hours, and then at gradually increasing time intervals for up to 60 days."}, "erythrocytes": {"test_system": "erythrocytes", "assay": "Hemolysis studies in vitro", "type": "cell-based", "conditions": "drug concentrations of 100 μg/mL or more", "text": "The hemolytic potential of the final use-formulation should also be minimal, since the terminal use formulation/infusate contain Bu and PEG as the only significant solutes to be infused, i.e. this is basically D5W with a moderate amount of PEG (40%, v/v) as its main additive. The procedure of Parthasarathy et al. was used to examine the hemolytic potential of a few selected formulations, and the LD50 values of the most optimal formulation was constructed as previously described (Parthasarathy et al., 1994). Briefly, heparinized blood was mixed with an equal volume of Alsever's solution (Alsever and Ainslie, 1941). This mixture was washed twice in PBS, and a 10% (volume per volume, v/v) erythrocyte/PBS solution was then prepared and mixed with increasing amounts of PEG (essentially the VE-acetone/PEG prototype vehicle) with or without addition of D5W and with or without Bu. The resulting mixtures were incubated for 4 hours at 37° C. […] The release of hemoglobin in the supernatant (i.e., hemolysis) was determined spectrophotometrically at a wavelength of 550 nm. Maximum lysis was measured against a reference erythrocyte solution that had been lysed by hypotonic shock. The hemolytic potential of the vehicle and the complete final use-formulation (Bu/VE-acetone/PEG/D5W) was evaluated as described (Parthasarathy et al., 1984). […]"}}, "note": "Read-outs that look alike come from different tables or passages of the source.", "data": [{"smiles": "CS(=O)(=O)OCCCCOS(C)(=O)=O", "note": "[Busulfan, 1,4-butanediol dimethanesulfonate]", "values": [{"measurement": "cytotoxic activity", "setting": "[1]", "value": "retained full cytotoxic activity"}, {"measurement": "terminal half-life in blood", "setting": "[2]", "value": "2 to 4", "unit": "h"}, {"measurement": "half-life", "setting": "[3]; Swiss Webster, mouse, plasma, iv, 10 mg/kg", "value": "150 to 210", "unit": "min"}, {"measurement": "tolerability of injections", "setting": "[3]; mice, 10 mg/kg IV, acute 4-hour observation period", "value": "well tolerated"}, {"measurement": "hemolysis in vivo (urine samples)", "setting": "[3]; mice, 10 mg/kg, urine samples up to 4 hours", "value": "no sign of hemolysis"}, {"measurement": "Bu plasma concentrations", "setting": "[3]; mice, IV 10 mg/kg BW", "value": "for several hours remained in the cytotoxic range"}, {"measurement": "Solubility", "setting": "[4]; Solvent: DMA", "value": 49.2, "unit": "mg/mL"}, {"measurement": "Solubility (mg/mL)", "setting": "[4]; Solvent: DMA", "value": "more than 15 mg/mL"}, {"measurement": "Solubility", "setting": "[4]; Solvent: DMSO", "value": 77.9, "unit": "mg/mL"}, {"measurement": "Solubility (mg/mL)", "setting": "[4]; Solvent: DMSO", "value": "more than 15 mg/mL"}, {"measurement": "concentration of Bu stably bound in PEG alone", "setting": "[4]; after mixing with PEG and extraction of the acetone", "value": "5 to 10", "unit": "mg/mL"}, {"measurement": "time stable in solution, stock formulation", "setting": "[5]; Bu/VE-acetone/PEG stock formulation, approximately 5 mg/mL, RT", "value": "≥ 60", "unit": "days"}, {"measurement": "time stable, final use-formulation", "setting": "[5]; VE-acetone/PEG diluted with aqueous diluent to 1 mg/mL, RT", "value": "at least 15 hours"}, {"measurement": "stability in DMSO", "setting": "[5]; in DMSO", "value": "rapidly started degrading"}, {"measurement": "time stably dissolved", "setting": "[5]; in acetone and DMA, RT", "value": "at least 7 days"}, {"measurement": "time stable, final clinical use-formulation", "setting": "[5]; reconstituted with D5W, 0.5 to 2 mg/mL, RT", "value": "at least 15 hours"}, {"measurement": "stability maintained", "setting": "[5]; up to 15 hours at 1 mg/ml", "value": "~100", "unit": "%"}, {"measurement": "stability maintained", "setting": "[5]; up to 25 hours at 0.5 mg/ml", "value": "~100", "unit": "%"}, {"measurement": "Bu-dependent lysis", "setting": "erythrocytes", "value": "barely exceeded background levels"}]}]}
